Results: PubChem BioAssay AID1963986 (Molecular Pharmacology Branch, DTP, NCI, 2024)

Tested on: 171881-019-R-J1-PDC tumor spheroid viability
Assay: Anticancer human tumor 171881-019-R-J1-PDC patient-derived invasive breast carcinoma cell line growth inhibition [PI3K]
Conditions: spheroids with HUVEC and MSC; for IC50: curve of first compound; for viability, T/C: stronger effect = lower value
How it was run: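 Multi-cell spheroids combine tumor cells with HUVEC and human MSCs, treated with targeted agents alone or with inavolisib, alpelisib, duvelisib or copanlisib. Concentrations fall in half-log steps from at or near clinical Cmax, or from 10 microM where Cmax is unknown; viability read-out.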
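Also: spheroids exposed to compound for 7 days before viability read.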
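For viability, T/C in this document: 100% = DMSO vehicle-treated spheroids.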

Cn1ncnc1[C@H]1c2n[nH]c(=O)c3cc(F)cc(c23)N[C@@H]1c1ccc(F)cc1 + CC(Nc1ncnc2nc[nH]c12)c1cc2cccc(Cl)c2c(=O)n1-c1ccccc1
IC50 (second compound 0.0316 µM): > 100 nM
IC50 (second compound 0.1 µM): > 100 nM
IC50 (second compound 0.316 µM): > 100 nM
IC50 (second compound 1 µM): > 100 nM
IC50 (second compound 3.16 µM): > 100 nM
IC50 (second compound 10 µM): > 100 nM
viability, T/C (second compound 0.0316 µM, first compound 0.000316 µM): 88.4%
viability, T/C (second compound 0.0316 µM, first compound 0.001 µM): 96.4%
viability, T/C (second compound 0.0316 µM, first compound 0.00316 µM): 93.4%
viability, T/C (second compound 0.0316 µM, first compound 0.01 µM): 104%
viability, T/C (second compound 0.0316 µM, first compound 0.0316 µM): 97.3%
viability, T/C (second compound 0.0316 µM, first compound 0.1 µM): 92.1%
viability, T/C (second compound 0.1 µM, first compound 0.000316 µM): 102%
viability, T/C (second compound 0.1 µM, first compound 0.001 µM): 98.6%
viability, T/C (second compound 0.1 µM, first compound 0.00316 µM): 88.8%
viability, T/C (second compound 0.1 µM, first compound 0.01 µM): 109%
viability, T/C (second compound 0.1 µM, first compound 0.0316 µM): 90.6%
viability, T/C (second compound 0.1 µM, first compound 0.1 µM): 102%
viability, T/C (second compound 0.316 µM, first compound 0.000316 µM): 93.2%
viability, T/C (second compound 0.316 µM, first compound 0.001 µM): 99.5%
viability, T/C (second compound 0.316 µM, first compound 0.00316 µM): 92.1%
viability, T/C (second compound 0.316 µM, first compound 0.01 µM): 106%
viability, T/C (second compound 0.316 µM, first compound 0.0316 µM): 90.1%
viability, T/C (second compound 0.316 µM, first compound 0.1 µM): 95.8%
viability, T/C (second compound 1 µM, first compound 0.000316 µM): 82%
viability, T/C (second compound 1 µM, first compound 0.001 µM): 100%
viability, T/C (second compound 1 µM, first compound 0.00316 µM): 105%
viability, T/C (second compound 1 µM, first compound 0.01 µM): 103%
viability, T/C (second compound 1 µM, first compound 0.0316 µM): 97.1%
viability, T/C (second compound 1 µM, first compound 0.1 µM): 98.2%
viability, T/C (second compound 3.16 µM, first compound 0.000316 µM): 83.5%
viability, T/C (second compound 3.16 µM, first compound 0.001 µM): 91.3%
viability, T/C (second compound 3.16 µM, first compound 0.00316 µM): 85.1%
viability, T/C (second compound 3.16 µM, first compound 0.01 µM): 93.2%
viability, T/C (second compound 3.16 µM, first compound 0.0316 µM): 92.5%
viability, T/C (second compound 3.16 µM, first compound 0.1 µM): 78.1%
viability, T/C (second compound 10 µM, first compound 0.000316 µM): 61.6%
viability, T/C (second compound 10 µM, first compound 0.001 µM): 64.7%
viability, T/C (second compound 10 µM, first compound 0.00316 µM): 60.5%
viability, T/C (second compound 10 µM, first compound 0.01 µM): 60.8%
viability, T/C (second compound 10 µM, first compound 0.0316 µM): 57.2%
viability, T/C (second compound 10 µM, first compound 0.1 µM): 57.6%
